The text below walks through data of patent US20240307420A1, “IMPROVED METHODS FOR THE USE OF PSYCHEDELICS” (TRYP Therapeutics Inc., priority 2021, published 2024).

What is called Tmax is the time from dosing to the highest level. As usually defined, the AUC(0-t) is the area under the concentration-time curve up to a stated or last time point. Read a low AUC(0-t) as low exposure. Broadly, the Cmax is the highest concentration seen after dosing.

Data set [1] has as its system rats. The experiment in a line: Head twitching response (HTR) after one-hour intravenous infusion, video recording. Format: in vivo, Sprague Dawley rats. The note with it: for Time after termination of infusion up to which head twitching was observed: after one hour 10 mg/kg IV infusion. As to the method:
To assess the pharmacodynamics (PD) of intravenously infused psychedelics, animal head-twitching was recorded as an indicator of achieving the dissociative state. Head twitching response (HTR) is used as a surrogate PD marker for the animals achieving or being in the dissociative or psychedelic state (for example, as described in Zhuk et al., Toxins 2015, 7, 1018-1029; Halberstadt et al., J Psychopharmacol. 2011 25(11): 1548-1561). HTR was also used to determine when the end of the dissociative state occurred following discontinuation of the IV infusion.
To assess HTR, a video monitoring system was used to record the animals in this study from discontinuation of the infusion through to the terminal sampling time point (1-hour post infusion). A camera was positioned such that the animals were visible from above. The recording was saved for review and the time of the observed head-twitching behavior, the duration of the observed behavior, and any additional atypical observations were documented.
The number of head-twitching events observed within the 60 minute time period after the one hour intravenous infusion of each of the 3 rats receiving psilocin or psilocybin, were determined from the video recordings. […] Upon termination of the IV infusion of either psilocin or psilocybin, head twitching activity subsided within 50 minutes, supporting the rapid termination of the dissociative or psychedelic, compared to previously reported termination of the dissociative state after an oral administration of psilocybin.

Data set [2] can be described thus: Plasma psilocin pharmacokinetics during and after one-hour intravenous infusion of psilocin or psilocybin. Particulars: for AUC(0-t): AUCT; for concentration at 0.25 h / concentration at 0.5 h / concentration at 1 h / concentration at 2 h / concentration at 4 h / concentration at 6 h / concentration at 8 h: Plasma concentration of psilocin.
The subject of data set [3] is rats. The experiment in a line: Head twitching response in unrestrained rats prior to, during and after 60 minute infusion (separate study). Format: in vivo. Particulars: 10 mg/kg over 60 minutes IV. How it is done: In a separate study, unrestrained rats were infused with 10 mg/kg psilocybin over a 60 minute period and head twitching response (HTR) was recorded prior to during and after IV administration. HTR was consistently observed in all tested rats, within 5 minutes after initiation of the infusion, and persisted during the 60-minute infusion period. HTR was discontinued in the animals soon after the termination of the infusion, generally within 30 minutes after the termination of the infusion. The results of the HTR supported the more rapid achievement of the dissociative or psychedelic state, coincident with the rise in systemic plasma psilocin levels, and rapid exit from the dissociative or psychedelic state after the termination of infusion (e.g., as assessed in Example 1).

In data set [4] the test system is rats. The experiment in a line: Von Frey assay (VFA) withdrawal threshold in formalin-induced rat pain model. The class given is in vivo. Particulars: contra-lateral paw; single 10 mg/kg IV administration. From the text:
(§1) Chronic pain in rats was induced by injection of formalin into the hind paw. The rats subsequently were intravenously administered psilocybin, and assessed for changes in pain perception over an extended period of time. The formalin pain model is a translational animal model for chronic nociplastic pain (Vanini G., Sleep 2016; 39(1): 133-42), including fibromyalgia, phantom limb pain or complex regional pain syndrome. In the formalin pain model, in addition to experiencing extra pain in the formalin-injected paw, the animal experiences increased pain perception (i.e., hyperalgesia) in extremities not injected with formalin (e.g., the contra-lateral hind paw compared to the one injected with formalin). The pain perception was measured in the contra-lateral paw to assess the potential benefit of psychedelics in nociplastic pain disorders. Reduction in pain perception and the duration of pain reduction were examined following intravenous bolus administration of 10 mg/kg psilocybin, administered over 3 minutes.
Two types of pain perception were measured. First, the Von Frey assay (VFA) was used to measure pain due to pressure exerted on the extremity (i.e., mechanical allodynia). Specifically. […] The minimum amount of force required to evoke a paw withdrawal response in each trial was determined to be the minimum withdrawal threshold for that animal trial. […]

Data set [5] relates to rats. The experiment in a line: Hot Plate assay (HPA) withdrawal latency in formalin-induced rat pain model. The class given is in vivo. Particulars: 52.5° C. hot plate; single 10 mg/kg IV administration.
Text: as §1, with “Reduction in pain perception and the duration of pain reduction were examined following intravenous bolus administration of 10 mg/kg psilocybin, administered over 3 minutes.” left out
The second pain measurement was based on the Hot Plate Assay (HPA), which measures the withdrawal latency at temperatures that register a painful response (i.e., thermal hyperalgesia). […] Once heated, each animal was placed in cylindrical tube on the hot plate and the latency to lick a hind paw or observed overt escape behavior (e.g., attempt to jump out of cylinder) was recorded (Ingram et al., Neruopsychopharmacology 2007; 32(3):600-6; Gunn et al., J Pain 2011; 12(2):222-7; Hestehave et al., Lab Anim 2016; 51(3):264-72). […]
A general note: Hot-plate and tail-flick tests time the reaction to a heat stimulus.

For data set [6] the following is noted: single oral administration of psilocybin at 0.225 mg/kg; cited from earlier work.
[7] abbreviates: plasma psilocin, individual rats, 10 mg/kg psilocin one-hour IV infusion.

The structures appear in SMILES notation. Several values for one entry are separate records, joined by “and”; a condition that tells them apart may be missing. Equal entries are not always repeated.

On to `CN(C)CCc1c[nH]c2cccc(O)c12` [psilocin, 4-hydroxy-N,N-dimethyltryptamine], for which the “Rats in which head-twitching was observed” value in the data set with rats [1] (60 minute period after one hour 10 mg/kg IV infusion) is recorded as 2 of 3. Moreover, the “Time after termination of infusion up to which head twitching was observed” value in the data set on rats [1] is not above 16 min. Besides, the “Plasma concentration of psilocin” value in data set [2] (individual rats, 10 mg/kg psilocin one-hour IV infusion, sampling time 0.25 h) is 1.0318 µg/mL and 0.9827 µg/mL; in data set [2] (individual rats, 10 mg/kg psilocin one-hour IV infusion, sampling time 0.5 h) it was 1.7316 µg/mL and 1.4893 µg/mL; in data set [2] (individual rats, 10 mg/kg psilocin one-hour IV infusion, sampling time 1 h), 2.1595 µg/mL and 1.6232 µg/mL; in data set [2] (individual rats, 10 mg/kg psilocin one-hour IV infusion, sampling time 2 h) it was 0.9656 µg/mL and 0.7404 µg/mL; in data set [2] (individual rats, 10 mg/kg psilocin one-hour IV infusion, sampling time 4 h) it was 0.2491 µg/mL and 0.2317 µg/mL; in data set [2] (individual rats, 10 mg/kg psilocin one-hour IV infusion, sampling time 6 h), 0.0802 µg/mL and 0.0596 µg/mL. Also, in data set [2] (individual rats, 10 mg/kg psilocin one-hour IV infusion, sampling time 8 h), the “Plasma concentration of psilocin” value was 0.0225 µg/mL and 0.0268 µg/mL. In addition, the Tmax in data set [2] (male, Sprague Dawley, rat, plasma, iv, 10 mg/kg) was found to be 1 h. For the same molecule, the AUC(0-t) in data set [2] (male, Sprague Dawley, rat, plasma, iv, 10 mg/kg, plasma psilocin, individual rats, 10 mg/kg psilocin one-hour IV infusion) stood at 3.55 µg·h/mL; in data set [2] (male, Sprague Dawley, rat, plasma, iv, 10 mg/kg, plasma psilocin, mean of 3 rats, 10 mg/kg psilocin one-hour IV infusion), 3.98 µg·h/mL. The Cmax in data set [2] (male, Sprague Dawley, rat, plasma, iv, 10 mg/kg, Cmax, plasma psilocin, individual rats, 10 mg/kg psilocin one-hour IV infusion) is 1.61 µg/mL; in data set [2] (male, Sprague Dawley, rat, plasma, iv, 10 mg/kg, Cmax, plasma psilocin, mean of 3 rats, 10 mg/kg psilocin one-hour IV infusion), 1.8 µg/mL; in data set [2] (setting [7]) it was 2.1595 µg/mL and 1.6232 µg/mL. The concentration at 0.25 h is 1.07 µg/mL in data set [2] (male, Sprague Dawley, rat, plasma, iv, 10 mg/kg, individual rats, 10 mg/kg psilocin one-hour IV infusion, sampling time 0.25 h) and 1.03 µg/mL in data set [2] (male, Sprague Dawley, rat, plasma, iv, 10 mg/kg, mean of 3 rats, 10 mg/kg psilocin one-hour IV infusion, sampling time 0.25 h). For the same molecule, the concentration at 0.5 h in data set [2] (male, Sprague Dawley, rat, plasma, iv, 10 mg/kg, individual rats, 10 mg/kg psilocin one-hour IV infusion, sampling time 0.5 h) worked out at 1.51 µg/mL; in data set [2] (male, Sprague Dawley, rat, plasma, iv, 10 mg/kg, mean of 3 rats, 10 mg/kg psilocin one-hour IV infusion, sampling time 0.5 h), 1.58 µg/mL. The concentration at 1 h in data set [2] (male, Sprague Dawley, rat, plasma, iv, 10 mg/kg, individual rats, 10 mg/kg psilocin one-hour IV infusion, sampling time 1 h) stood at 1.61 µg/mL; in data set [2] (male, Sprague Dawley, rat, plasma, iv, 10 mg/kg, mean of 3 rats, 10 mg/kg psilocin one-hour IV infusion, sampling time 1 h), 1.8 µg/mL. The concentration at 2 h in data set [2] (male, Sprague Dawley, rat, plasma, iv, 10 mg/kg, individual rats, 10 mg/kg psilocin one-hour IV infusion, sampling time 2 h) came out at 0.715 µg/mL; in data set [2] (male, Sprague Dawley, rat, plasma, iv, 10 mg/kg, mean of 3 rats, 10 mg/kg psilocin one-hour IV infusion, sampling time 2 h), 0.807 µg/mL. The concentration at 4 h in data set [2] (male, Sprague Dawley, rat, plasma, iv, 10 mg/kg, individual rats, 10 mg/kg psilocin one-hour IV infusion, sampling time 4 h) stood at 0.165 µg/mL; in data set [2] (male, Sprague Dawley, rat, plasma, iv, 10 mg/kg, mean of 3 rats, 10 mg/kg psilocin one-hour IV infusion, sampling time 4 h), 0.215 µg/mL. In addition, the concentration at 6 h in data set [2] (male, Sprague Dawley, rat, plasma, iv, 10 mg/kg, individual rats, 10 mg/kg psilocin one-hour IV infusion, sampling time 6 h) is 0.0477 µg/mL; in data set [2] (male, Sprague Dawley, rat, plasma, iv, 10 mg/kg, mean of 3 rats, 10 mg/kg psilocin one-hour IV infusion, sampling time 6 h), 0.0625 µg/mL. Besides, the concentration at 8 h in data set [2] (male, Sprague Dawley, rat, plasma, iv, 10 mg/kg, individual rats, 10 mg/kg psilocin one-hour IV infusion, sampling time 8 h) is 0.0173 µg/mL; in data set [2] (male, Sprague Dawley, rat, plasma, iv, 10 mg/kg, mean of 3 rats, 10 mg/kg psilocin one-hour IV infusion, sampling time 8 h), 0.0222 µg/mL. Also, in data set [2] (setting [7]), the AUCT was 4.6564 µg·h/mL and 3.7416 µg·h/mL.
Regarding `CN(C)CCc1c[nH]c2cccc(OP(=O)(O)O)c12` [psilocybin, [3-(2-dimethylaminoethyl)-1H-indol-4-yl] dihydrogen phosphate], the “Time after termination of infusion up to which head twitching was observed” value in the data set with rats [1] is “up to 50 minutes”. Besides, the “Time to discontinuation of head twitching response after termination of the infusion” value in the data set on rats [3] was not above 30 min. Also, the “Time to head twitching response after initiation of the infusion” value in the data set with rats [3] (all tested rats) is not above 5 min. In the data set on rats [4], the “Duration of statistically significant increase in VFA withdrawal threshold” value came to 3 weeks. In the data set with rats [5], the “Duration of improved pain sensitivity response (HPA withdrawal latency) compared to saline control” value is recorded as “at least 4 weeks”. Moreover, in data set [6], the “Average peak concentration of psilocin in plasma” value is 8.2+/−2.8 ng psilocin/ml plasma and the “Time of peak plasma levels of psilocin” value is 105 ± 37 min.
